# Tested on: db/db mice
# Test: Diabetic db/db Mouse In Vivo Assay
# Settings: female db/db mice
# Excerpt: Db/db mice are known in the art to be susceptible to Type II diabetes (Sharma K, McCue P, Dunn S R. Am J Physiol Renal Physiol. 2003 June; 284(6):F1138-44). The Db/db mice are also known in the art to be a useful model for dylipidemia.
# Female db/db mice (C57BL/6J-Lep^db/db, Jackson Laboratories, Bar Harbor, Me., USA) were received at 8 weeks of age and single-housed and fed with regular chow diet. Blood was collected by tail puncture and glucose was monitored with a glucometer (OneTouch Basic, Lifescan, Newtown, Pa.).
# Mice at 10 weeks of age were randomized into treatment groups based on glucose values (first criterion, average of 250 mg/dl) and body weight (second criterion, average of 37 gram). The mice were orally gavaged once daily (0.2 ml at 1500-1700 hour) with vehicle control (0.5% methylcellulose, pH7.4) and vehicle containing test compound (300 mg/kg). On day 11, the mice were fasted for 4 hr during light cycle (food was removed 0600-1000 hour) and blood glucose levels were measured through tail puncture with a glucometer at 1000 hour. The mice were then anaesthetized with sodium pentobarbital (1 ml/kg, i.p, Sleepaway, Fort Dodge, Iowa) and blood was drawn via cardiac puncture and collected into heparinized tubes.
# White adipose tissue (WAT) (retroperitoneal fat) and skeletal muscle (gastrocnemius and soleus muscle) were dissected and weighed. Plasma samples were obtained by centrifuge at 2,000 g for 15 minutes at 4° C. and subjected to measurement of insulin, HDL cholesterol and triglyceride.
# Data shown below are expressed as the mean and standard error calculated using 9-10 mice per treatment group. The 2 tailed Student's t-Tests were used for statistic analysis. All animal studies complied with the guideline of the Institutional Animal Care and Use Committee.
# [1] = 300 mg/kg oral gavage once daily, day 11, plasma, mean ± standard error
# [2] = 300 mg/kg oral once daily, in words
smiles,measurement,setting,value
"NS(=O)(=O)NCc1csc2ccccc12 [Compound #1, N-(benzo[b]thien-3-ylmethyl)-sulfamide]",Blood Glucose,"300 mg/kg oral gavage once daily, day 11, 4 hr fasted, mean ± standard error, 9-10 mice",350 ± 19 mg/dL
same,HDL Cholesterol,[1],52.6 ± 1.8 mg/dL
same,Triglycerides,[1],149.2 ± 15.8 mg/dL
same,Insulin levels,"300 mg/kg oral gavage once daily, day 11, plasma, vehicle 11.9±2.2",14.6±3.0
same,Skeletal Muscle Weight,"300 mg/kg oral gavage once daily, day 11, gastrocnemius and soleus muscle, mean ± standard error",0.155 ± 0.004 g
same,Retroperitoneal Fat Weight,"300 mg/kg oral gavage once daily, day 11, mean ± standard error",1.29 ± 0.09 g
same,blood glucose levels as compared to vehicle treated mice,[2],significantly lower
same,blood triglyceride levels as compared to vehicle treated mice,[2],decreased
same,plasma HDL cholesterol levels as compared to vehicle treated mice,[2],significantly increased
same,skeletal muscle mass versus vehicle,[2],increased skeletal muscle mass
same,fat to lean mass ratio,"300 mg/kg oral once daily, versus vehicle, in words",significant decrease

# Source: US20070191459A1, “Use of Benzo-Heteroaryl Sulfamide Derivatives for Lowering Lipids and Lowering Blood Glucose Levels” (priority 2006, published 2007)
